Measurements published in PubChem BioAssay (NCI).
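Following 48 hours of exposure in 96-well plates, responses at five concentrations were used to interpolate endpoints linearly. Abbreviation: GI50, concentration required for 50% inhibition of growth. TGI denotes the concentration required for complete inhibition of growth.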

Tests used:
Experiment in all cases: growth of human tumour cells (NCI), 48 h
786-0 renal = test system: 786-0 renal
A498 renal = test system: A498 renal
A549 NSCLC = test system: A549 NSCLC
ACHN renal = test system: ACHN renal
BT-549 breast = test system: BT-549 breast
CAKI-1 renal = test system: CAKI-1 renal
CCRF-CEM leukemia = test system: CCRF-CEM leukemia
COLO 205 colon = test system: COLO 205 colon
DU-145 prostate = test system: DU-145 prostate
EKVX NSCLC = test system: EKVX NSCLC
HCC-2998 colon = test system: HCC-2998 colon
HCT-116 colon = test system: HCT-116 colon
HCT-15 colon = test system: HCT-15 colon
HL-60(TB) leukemia = test system: HL-60(TB) leukemia
HOP-62 NSCLC = test system: HOP-62 NSCLC
HOP-92 NSCLC = test system: HOP-92 NSCLC
HS 578T breast = test system: HS 578T breast
HT29 colon = test system: HT29 colon
IGROV1 ovarian = test system: IGROV1 ovarian
K-562 leukemia = test system: K-562 leukemia
KM12 colon = test system: KM12 colon
LOX IMVI melanoma = test system: LOX IMVI melanoma
M14 melanoma = test system: M14 melanoma
MALME-3M melanoma = test system: MALME-3M melanoma
MCF7 breast = test system: MCF7 breast
MDA-MB-231 breast = test system: MDA-MB-231 breast
MDA-MB-435 = test system: MDA-MB-435
MOLT-4 leukemia = test system: MOLT-4 leukemia
NCI-H226 lung = test system: NCI-H226 lung
NCI-H23 lung = test system: NCI-H23 lung
NCI-H460 lung = test system: NCI-H460 lung
NCI-H522 lung = test system: NCI-H522 lung
NCI/ADR-RES ovarian = test system: NCI/ADR-RES ovarian
OVCAR-3 ovarian = test system: OVCAR-3 ovarian
OVCAR-4 ovarian = test system: OVCAR-4 ovarian
OVCAR-5 ovarian = test system: OVCAR-5 ovarian
OVCAR-8 ovarian = test system: OVCAR-8 ovarian
PC-3 prostate = test system: PC-3 prostate
RPMI-8226 leukemia = test system: RPMI-8226 leukemia
RXF 393 renal = test system: RXF 393 renal
SF-268 CNS = test system: SF-268 CNS
SF-295 CNS = test system: SF-295 CNS
SF-539 CNS = test system: SF-539 CNS
SK-MEL-2 melanoma = test system: SK-MEL-2 melanoma
SK-MEL-28 melanoma = test system: SK-MEL-28 melanoma
SK-MEL-5 melanoma = test system: SK-MEL-5 melanoma
SK-OV-3 ovarian = test system: SK-OV-3 ovarian
SN12C renal = test system: SN12C renal
SNB-19 CNS = test system: SNB-19 CNS
SNB-75 CNS = test system: SNB-75 CNS
SR leukemia = test system: SR leukemia
SW-620 colon = test system: SW-620 colon
T-47D breast = test system: T-47D breast
TK-10 renal = test system: TK-10 renal
U251 CNS = test system: U251 CNS
UACC-257 melanoma = test system: UACC-257 melanoma
UACC-62 melanoma = test system: UACC-62 melanoma
UO-31 renal = test system: UO-31 renal

COc1cc(/C=C/C(=O)c2ccc(Nc3nc(Nc4ccc(F)cc4)nc(Nc4ccc(Cl)cc4)n3)cc2)cc(OC)c1OC
GI50 (786-0 renal): 6.13 µM
TGI (786-0 renal): 17.8 µM
GI50 (A498 renal): 3.23 µM
TGI (A498 renal): 13.6 µM
GI50 (A549 NSCLC): 12.1 µM
TGI (A549 NSCLC): 99 µM
GI50 (ACHN renal): 5.88 µM
TGI (ACHN renal): 61.1 µM
GI50 (BT-549 breast): 8.16 µM
TGI (BT-549 breast): 59.3 µM
GI50 (CAKI-1 renal): > 100 µM
TGI (CAKI-1 renal): > 100 µM
GI50 (CCRF-CEM leukemia): 1.09 µM
TGI (CCRF-CEM leukemia): 6.69 µM
GI50 (COLO 205 colon): 7.1 µM
TGI (COLO 205 colon): 41.2 µM
GI50 (DU-145 prostate): 10.6 µM
TGI (DU-145 prostate): > 65.9 µM
GI50 (EKVX NSCLC): > 24 µM
TGI (EKVX NSCLC): > 100 µM
GI50 (HCC-2998 colon): 0.804 µM
TGI (HCC-2998 colon): 2.3 µM
GI50 (HCT-116 colon): 3.13 µM
TGI (HCT-116 colon): 14.2 µM
GI50 (HCT-15 colon): 2.02 µM
TGI (HCT-15 colon): > 29.4 µM
GI50 (HL-60(TB) leukemia): 0.523 µM
TGI (HL-60(TB) leukemia): 3.23 µM
GI50 (HOP-62 NSCLC): 24.6 µM
TGI (HOP-62 NSCLC): > 73.8 µM
TGI (HOP-92 NSCLC): 4.75 µM
GI50 (HS 578T breast): 2.75 µM
TGI (HS 578T breast): 11.9 µM
GI50 (HT29 colon): 2.81 µM
TGI (HT29 colon): 17.5 µM
GI50 (IGROV1 ovarian): 4.66 µM
TGI (IGROV1 ovarian): 31.8 µM
GI50 (K-562 leukemia): 1.74 µM
TGI (K-562 leukemia): 8.19 µM
GI50 (KM12 colon): 3.35 µM
TGI (KM12 colon): 19.9 µM
GI50 (LOX IMVI melanoma): 1.82 µM
TGI (LOX IMVI melanoma): 4.84 µM
GI50 (M14 melanoma): 10.1 µM
TGI (M14 melanoma): 43.5 µM
GI50 (MALME-3M melanoma): 5.41 µM
TGI (MALME-3M melanoma): 13.7 µM
GI50 (MCF7 breast): 1.87 µM
TGI (MCF7 breast): 20.3 µM
GI50 (MDA-MB-231 breast): 5.77 µM
TGI (MDA-MB-231 breast): > 37.9 µM
GI50 (MDA-MB-435): 7.6 µM
TGI (MDA-MB-435): > 26.4 µM
GI50 (MOLT-4 leukemia): 1.15 µM
TGI (MOLT-4 leukemia): 3.6 µM
GI50 (NCI-H226 lung): 3.63 µM
TGI (NCI-H226 lung): 34.4 µM
GI50 (NCI-H23 lung): 3.99 µM
TGI (NCI-H23 lung): 20.7 µM
GI50 (NCI-H460 lung): 4.3 µM
TGI (NCI-H460 lung): 28 µM
GI50 (NCI-H522 lung): 3.8 µM
TGI (NCI-H522 lung): > 53.9 µM
GI50 (NCI/ADR-RES ovarian): 7.19 µM
TGI (NCI/ADR-RES ovarian): > 85.3 µM
GI50 (OVCAR-3 ovarian): 4.14 µM
TGI (OVCAR-3 ovarian): 15.9 µM
GI50 (OVCAR-4 ovarian): 6.75 µM
TGI (OVCAR-4 ovarian): > 100 µM
GI50 (OVCAR-5 ovarian): 12.6 µM
TGI (OVCAR-5 ovarian): 45.5 µM
GI50 (OVCAR-8 ovarian): 0.94 µM
TGI (OVCAR-8 ovarian): 11.1 µM
GI50 (PC-3 prostate): 1.04 µM
GI50 (RPMI-8226 leukemia): 0.811 µM
TGI (RPMI-8226 leukemia): 4.8 µM
GI50 (RXF 393 renal): 1.12 µM
TGI (RXF 393 renal): 2.9 µM
GI50 (SF-268 CNS): 9.23 µM
TGI (SF-268 CNS): 58.1 µM
GI50 (SF-295 CNS): 12.6 µM
TGI (SF-295 CNS): > 44.9 µM
GI50 (SF-539 CNS): 6.54 µM
TGI (SF-539 CNS): 15.3 µM
GI50 (SK-MEL-2 melanoma): 5.51 µM
TGI (SK-MEL-2 melanoma): 27 µM
GI50 (SK-MEL-28 melanoma): 1.82 µM
TGI (SK-MEL-28 melanoma): 3.71 µM
GI50 (SK-MEL-5 melanoma): 4.16 µM
TGI (SK-MEL-5 melanoma): 19 µM
GI50 (SK-OV-3 ovarian): 46.8 µM
TGI (SK-OV-3 ovarian): > 100 µM
GI50 (SN12C renal): 5.69 µM
TGI (SN12C renal): 54.4 µM
GI50 (SNB-19 CNS): 18.9 µM
TGI (SNB-19 CNS): > 100 µM
GI50 (SNB-75 CNS): 3.67 µM
TGI (SNB-75 CNS): 38.7 µM
GI50 (SR leukemia): 1.03 µM
TGI (SR leukemia): 3.74 µM
GI50 (SW-620 colon): 3.78 µM
TGI (SW-620 colon): 17.2 µM
GI50 (T-47D breast): 5.6 µM
TGI (T-47D breast): > 62.2 µM
GI50 (TK-10 renal): 19.8 µM
TGI (TK-10 renal): 76.4 µM
GI50 (U251 CNS): 3.19 µM
TGI (U251 CNS): > 34.7 µM
GI50 (UACC-257 melanoma): 6.76 µM
TGI (UACC-257 melanoma): 22.9 µM
GI50 (UACC-62 melanoma): 6.66 µM
TGI (UACC-62 melanoma): 23.7 µM
GI50 (UO-31 renal): 6.7 µM
TGI (UO-31 renal): > 61.8 µM
